Data taken from article PMC2783557 (Brain, behavior, and immunity, 2009).

Tests used:
Tg2576 mice = conditions: chronic treatment from 8-15 months of age, ref Sheng et al., 2003; cited from earlier work
Male CD-1 mice = assay: Brain uptake; type: in vivo, mouse; conditions: indomethacin 20 mg/kg ip 30 min before LPS 3 mg/kg; n = 6-8/group

COc1ccc2c(c1)c(CC(=O)O)c(C)n2C(=O)c1ccc(Cl)cc1 [Indomethacin]
levels of soluble Aβ40 and Aβ42 in the hippocampus and cortex (Tg2576 mice): significantly reduce | effect of LPS on brain uptake (influx) of I-Aβ (Male CD-1 mice): did not reverse
